{"source": "patent US10716797B2", "about": "“Steroid alkaloids and compositions and kits thereof” (priority 2013, dated 2020)", "key": {"S. aureus hemB (SaR1)": {"system": "S. aureus hemB (SaR1)", "experiment": "MIC against tomatidine-resistant SCV mutant SaR1", "assay_type": "cell-based, Staphylococcus aureus", "description": "(§1) At each passage, using a microdilution method in 96-well microplates, S. aureus hemB was inoculated at ˜10^5-10^6 CFU/ml and incubated at 35° C. for 48 h. The range of tomatidine concentrations tested was 0.03 to 64 μg/ml using doubling increments. The concentration of gentamicin was fixed at 4 μg/mL when it was used in combination with tomatidine. At each passage, the minimal inhibitory concentrations (MICs) (i.e. lowest concentration of an antimicrobial that inhibits the visible growth of bacteria), of tomatidine was determined. The bacteria used as inoculum for the next passage were from the well preceeding the well showing the MIC (i.e. the well containing half the MIC). At each passage, the population of bacteria serving as the inoculum for the next passage was spread on BHI agar plates and three isolated colonies were collected and frozen until used for whole-genome sequencing."}, "S. aureus hemB (SaR2)": {"system": "S. aureus hemB (SaR2)", "experiment": "MIC against tomatidine-resistant SCV mutant SaR2", "assay_type": "cell-based, Staphylococcus aureus", "description": "as §1"}}, "data": [{"substance": "3-(N-aminoethyl)-aminotomatidine hydrochloride [Compound 14]", "values": [{"measurement": "Fold increase in resistance (MIC for mutant / MIC for NewbouldΔhemB)", "setting": "S. aureus hemB (SaR1); mutant SaR1", "value": 16, "unit": "fold"}, {"measurement": "MIC", "setting": "S. aureus hemB (SaR1); tomatidine-resistant mutant SaR1", "value": 8, "unit": "µg/mL"}, {"measurement": "Fold increase in resistance (MIC for mutant / MIC for NewbouldΔhemB)", "setting": "S. aureus hemB (SaR2); mutant SaR2", "value": 8, "unit": "fold"}, {"measurement": "MIC", "setting": "S. aureus hemB (SaR2); tomatidine-resistant mutant SaR2", "value": 4, "unit": "µg/mL"}]}]}
